Like-named read-outs stand apart in the source and are kept apart here.
How the values were obtained:
Assay in all cases: selectivity profiling in a panel of 340 wild-type kinases (Reaction Biology Europe)
Assay type in all cases: binding
[1] = molecular target: T1, 340 wild-type kinases (Homo sapiens, UniProt P19784)
T1 construct: purchased Reaction Biology Europe

[2] = molecular target: T2, 340 wild-type kinases (Homo sapiens, UniProt Q9H3Y6)
T2 construct: purchased Reaction Biology Europe

[3] = molecular target: T3, 340 wild-type kinases (Homo sapiens, UniProt P07947)
T3 construct: purchased Reaction Biology Europe

[4] = molecular target: T4, 340 wild-type kinases (Homo sapiens, UniProt O00418)
T4 construct: purchased Reaction Biology Europe
T4 sequence (O00418 1-725): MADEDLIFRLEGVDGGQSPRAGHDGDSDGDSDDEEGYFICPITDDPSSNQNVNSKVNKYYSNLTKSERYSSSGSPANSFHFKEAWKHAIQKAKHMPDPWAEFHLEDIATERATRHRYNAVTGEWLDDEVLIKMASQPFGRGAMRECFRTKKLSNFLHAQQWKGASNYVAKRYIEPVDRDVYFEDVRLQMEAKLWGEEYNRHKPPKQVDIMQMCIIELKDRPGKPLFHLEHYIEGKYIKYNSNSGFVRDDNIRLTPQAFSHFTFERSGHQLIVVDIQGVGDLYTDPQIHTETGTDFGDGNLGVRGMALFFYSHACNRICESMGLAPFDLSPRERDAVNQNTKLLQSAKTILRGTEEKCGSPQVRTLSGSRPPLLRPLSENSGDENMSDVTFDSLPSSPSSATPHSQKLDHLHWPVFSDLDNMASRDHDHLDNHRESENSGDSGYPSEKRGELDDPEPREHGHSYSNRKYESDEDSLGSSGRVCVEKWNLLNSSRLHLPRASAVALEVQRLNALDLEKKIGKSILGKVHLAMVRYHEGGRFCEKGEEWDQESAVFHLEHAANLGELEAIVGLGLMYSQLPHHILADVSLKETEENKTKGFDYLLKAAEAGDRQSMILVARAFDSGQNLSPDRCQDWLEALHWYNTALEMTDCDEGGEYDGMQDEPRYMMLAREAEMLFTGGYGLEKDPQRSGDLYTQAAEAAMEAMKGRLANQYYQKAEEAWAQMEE

[5] = molecular target: T5, 340 wild-type kinases (Homo sapiens, UniProt P15735)
T5 construct: purchased Reaction Biology Europe
T5 sequence (P15735 1-406): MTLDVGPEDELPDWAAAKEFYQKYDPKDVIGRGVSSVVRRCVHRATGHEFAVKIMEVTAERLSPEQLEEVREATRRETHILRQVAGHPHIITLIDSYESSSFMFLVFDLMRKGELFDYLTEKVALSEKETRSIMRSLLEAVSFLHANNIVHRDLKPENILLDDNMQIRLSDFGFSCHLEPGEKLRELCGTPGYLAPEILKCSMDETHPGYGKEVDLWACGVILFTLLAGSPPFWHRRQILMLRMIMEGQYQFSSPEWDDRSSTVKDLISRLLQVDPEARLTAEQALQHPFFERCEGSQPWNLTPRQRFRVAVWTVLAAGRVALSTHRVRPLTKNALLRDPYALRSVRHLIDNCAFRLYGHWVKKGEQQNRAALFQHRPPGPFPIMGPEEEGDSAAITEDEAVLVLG

[6] = molecular target: T6, 340 wild-type kinases (Homo sapiens, UniProt Q9H2K8)
T6 construct: purchased Reaction Biology Europe
T6 sequence (Q9H2K8 1-898): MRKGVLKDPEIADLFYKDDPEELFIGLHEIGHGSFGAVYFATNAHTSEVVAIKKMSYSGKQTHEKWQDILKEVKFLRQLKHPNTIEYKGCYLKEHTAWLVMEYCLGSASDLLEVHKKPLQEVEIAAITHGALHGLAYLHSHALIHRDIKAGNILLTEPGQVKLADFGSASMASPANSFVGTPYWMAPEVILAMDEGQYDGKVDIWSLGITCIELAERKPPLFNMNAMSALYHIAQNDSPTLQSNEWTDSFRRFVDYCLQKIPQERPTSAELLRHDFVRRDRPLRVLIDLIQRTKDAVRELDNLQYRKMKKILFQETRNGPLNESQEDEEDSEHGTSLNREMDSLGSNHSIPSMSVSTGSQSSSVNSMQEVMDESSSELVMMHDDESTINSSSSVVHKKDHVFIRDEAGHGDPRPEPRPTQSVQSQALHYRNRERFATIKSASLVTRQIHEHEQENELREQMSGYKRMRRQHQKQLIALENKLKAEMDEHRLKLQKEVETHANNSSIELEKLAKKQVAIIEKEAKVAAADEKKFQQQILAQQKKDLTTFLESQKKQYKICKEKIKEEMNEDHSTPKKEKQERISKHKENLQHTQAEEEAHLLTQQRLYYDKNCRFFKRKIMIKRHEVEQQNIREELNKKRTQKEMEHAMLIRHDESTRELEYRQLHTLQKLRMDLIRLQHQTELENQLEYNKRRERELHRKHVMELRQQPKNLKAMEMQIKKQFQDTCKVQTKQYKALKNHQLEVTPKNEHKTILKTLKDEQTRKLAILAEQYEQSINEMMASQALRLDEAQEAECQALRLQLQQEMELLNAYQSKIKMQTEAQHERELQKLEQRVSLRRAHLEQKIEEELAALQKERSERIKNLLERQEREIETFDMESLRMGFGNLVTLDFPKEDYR

[7] = molecular target: T7, 340 wild-type kinases (Homo sapiens, UniProt P31749)
T7 construct: purchased Reaction Biology Europe

[8] = molecular target: T8, 340 wild-type kinases (Homo sapiens, UniProt Q9P289)
T8 construct: purchased Reaction Biology Europe
T8 sequence (Q9P289 whole entry): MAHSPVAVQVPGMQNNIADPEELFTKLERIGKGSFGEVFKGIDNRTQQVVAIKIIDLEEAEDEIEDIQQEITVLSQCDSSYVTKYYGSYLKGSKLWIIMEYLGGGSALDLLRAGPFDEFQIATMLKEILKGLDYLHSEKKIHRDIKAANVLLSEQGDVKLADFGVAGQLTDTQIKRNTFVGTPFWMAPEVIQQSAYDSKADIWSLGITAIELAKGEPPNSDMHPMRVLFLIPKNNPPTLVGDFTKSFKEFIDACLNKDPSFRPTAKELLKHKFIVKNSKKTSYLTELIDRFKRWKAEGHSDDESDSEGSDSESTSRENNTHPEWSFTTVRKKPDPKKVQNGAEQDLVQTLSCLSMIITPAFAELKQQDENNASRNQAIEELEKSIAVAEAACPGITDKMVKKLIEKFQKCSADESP

T3 sequence (P07947 whole entry): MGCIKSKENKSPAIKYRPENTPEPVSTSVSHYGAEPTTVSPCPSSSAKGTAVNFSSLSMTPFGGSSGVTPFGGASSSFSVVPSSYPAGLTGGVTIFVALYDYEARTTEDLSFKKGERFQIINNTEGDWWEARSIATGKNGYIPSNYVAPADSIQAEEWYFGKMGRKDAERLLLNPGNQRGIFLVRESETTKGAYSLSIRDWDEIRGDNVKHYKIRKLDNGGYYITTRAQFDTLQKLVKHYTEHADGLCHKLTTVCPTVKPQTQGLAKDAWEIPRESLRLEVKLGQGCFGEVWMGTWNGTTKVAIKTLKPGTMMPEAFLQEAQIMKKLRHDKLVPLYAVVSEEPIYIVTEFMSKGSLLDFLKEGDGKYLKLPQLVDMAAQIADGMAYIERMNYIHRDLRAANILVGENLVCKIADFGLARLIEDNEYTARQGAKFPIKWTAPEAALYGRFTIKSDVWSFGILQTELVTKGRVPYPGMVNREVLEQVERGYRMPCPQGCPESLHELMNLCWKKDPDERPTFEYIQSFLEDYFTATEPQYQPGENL
T2 sequence (Q9H3Y6 whole entry): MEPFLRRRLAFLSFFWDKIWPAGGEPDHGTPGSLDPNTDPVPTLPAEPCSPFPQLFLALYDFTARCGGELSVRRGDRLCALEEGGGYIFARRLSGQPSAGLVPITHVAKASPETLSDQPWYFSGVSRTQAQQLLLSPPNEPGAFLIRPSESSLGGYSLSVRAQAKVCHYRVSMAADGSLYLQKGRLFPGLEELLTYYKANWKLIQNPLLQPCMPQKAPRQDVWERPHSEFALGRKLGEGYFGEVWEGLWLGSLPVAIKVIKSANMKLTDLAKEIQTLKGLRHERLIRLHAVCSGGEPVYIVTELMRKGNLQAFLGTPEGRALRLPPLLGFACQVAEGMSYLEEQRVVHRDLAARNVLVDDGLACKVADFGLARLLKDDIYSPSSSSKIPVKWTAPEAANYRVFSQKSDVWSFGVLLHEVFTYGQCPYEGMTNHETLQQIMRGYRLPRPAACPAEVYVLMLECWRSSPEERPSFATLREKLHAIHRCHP
T1 sequence (P19784 whole entry): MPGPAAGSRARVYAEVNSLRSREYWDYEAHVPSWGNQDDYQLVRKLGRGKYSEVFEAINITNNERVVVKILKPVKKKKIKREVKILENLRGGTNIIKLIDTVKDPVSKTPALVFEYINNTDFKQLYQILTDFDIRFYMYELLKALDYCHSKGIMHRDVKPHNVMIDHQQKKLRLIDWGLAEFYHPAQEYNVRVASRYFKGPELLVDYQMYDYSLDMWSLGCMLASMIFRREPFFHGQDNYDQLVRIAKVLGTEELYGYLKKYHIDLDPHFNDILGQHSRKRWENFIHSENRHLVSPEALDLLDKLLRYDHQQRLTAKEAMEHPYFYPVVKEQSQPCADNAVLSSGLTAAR
T7 sequence (P31749 whole entry): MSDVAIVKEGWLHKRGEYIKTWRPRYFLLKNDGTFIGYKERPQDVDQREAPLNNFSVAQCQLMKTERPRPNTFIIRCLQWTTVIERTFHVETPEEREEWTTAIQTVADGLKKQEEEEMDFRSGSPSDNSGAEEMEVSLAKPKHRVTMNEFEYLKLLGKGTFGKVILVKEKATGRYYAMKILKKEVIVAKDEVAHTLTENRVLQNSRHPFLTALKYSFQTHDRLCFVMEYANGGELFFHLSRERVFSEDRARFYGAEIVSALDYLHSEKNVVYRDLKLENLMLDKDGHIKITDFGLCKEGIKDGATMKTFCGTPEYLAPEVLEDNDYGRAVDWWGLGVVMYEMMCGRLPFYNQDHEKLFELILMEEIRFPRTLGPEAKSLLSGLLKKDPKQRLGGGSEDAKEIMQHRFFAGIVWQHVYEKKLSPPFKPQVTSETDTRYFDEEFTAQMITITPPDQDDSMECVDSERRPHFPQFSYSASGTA

## CNC(=O)c1ccc2c(c1)C(=O)c1ccc(Nc3ccc(F)c(NC(=O)C4CC4)c3)cc1CC2 [Compound 2015]
[1]; 0.2 µM 2015, read-out: CK2alpha2 residual activity
  remaining activity at 0.2 µM: 102%
[1]; 1 µM 2015, read-out: CK2alpha2 residual activity
  remaining activity at 1 µM: 97.2%
[1]; CK2alpha2, 0.2 µM, read-out: residual activity
  remaining activity at 0.2 µM: 102%
[1]; CK2alpha2, 1 µM, read-out: residual activity
  remaining activity at 1 µM: 97.2%
[2]; 0.2 µM 2015, read-out: SRMS residual activity
  remaining activity at 0.2 µM: 96.9%
[2]; 1 µM 2015, read-out: SRMS residual activity
  remaining activity at 1 µM: 98.5%
[2]; SRMS, 0.2 µM, read-out: residual activity
  remaining activity at 0.2 µM: 96.9%
[2]; SRMS, 1 µM, read-out: residual activity
  remaining activity at 1 µM: 98.5%
[3]; 0.2 µM 2015, read-out: YES residual activity
  remaining activity at 0.2 µM: 102%
[3]; 1 µM 2015, read-out: YES residual activity
  remaining activity at 1 µM: 105%
[3]; YES, 0.2 µM, read-out: residual activity
  remaining activity at 0.2 µM: 102%
[3]; YES, 1 µM, read-out: residual activity
  remaining activity at 1 µM: 105%
[4]; 0.2 µM 2015, read-out: EEF2K residual activity
  remaining activity at 0.2 µM: 106%
[4]; 1 µM 2015, read-out: EEF2K residual activity
  remaining activity at 1 µM: 98.4%
[4]; EEF2K, 0.2 µM, read-out: residual activity
  remaining activity at 0.2 µM: 106%
[4]; EEF2K, 1 µM, read-out: residual activity
  remaining activity at 1 µM: 98.4%
[5]; 0.2 µM 2015, read-out: PHKG2 residual activity
  remaining activity at 0.2 µM: 102%
[5]; 1 µM 2015, read-out: PHKG2 residual activity
  remaining activity at 1 µM: 98.8%
[5]; PHKG2, 0.2 µM, read-out: residual activity
  remaining activity at 0.2 µM: 102%
[5]; PHKG2, 1 µM, read-out: residual activity
  remaining activity at 1 µM: 98.8%
[6]; 0.2 µM 2015, read-out: TAOK3 residual activity
  remaining activity at 0.2 µM: 101%
[6]; 1 µM 2015, read-out: TAOK3 residual activity
  remaining activity at 1 µM: 98.6%
[6]; TAOK3, 0.2 µM, read-out: residual activity
  remaining activity at 0.2 µM: 101%
[6]; TAOK3, 1 µM, read-out: residual activity
  remaining activity at 1 µM: 98.6%
[7]; 0.2 µM 2015, read-out: AKT1 residual activity
  remaining activity at 0.2 µM: 100%
[7]; 1 µM 2015, read-out: AKT1 residual activity
  remaining activity at 1 µM: 98.7%
[7]; AKT1, 0.2 µM, read-out: residual activity
  remaining activity at 0.2 µM: 100%
[7]; AKT1, 1 µM, read-out: residual activity
  remaining activity at 1 µM: 98.7%
[8]; 0.2 µM 2015, read-out: MST4 residual activity
  remaining activity at 0.2 µM: 78.4%
[8]; 1 µM 2015, read-out: MST4 residual activity
  remaining activity at 1 µM: 69.9%
[8]; MST4, 0.2 µM, read-out: residual activity
  remaining activity at 0.2 µM: 78.3%
[8]; MST4, 1 µM, read-out: residual activity
  remaining activity at 1 µM: 69.9%

Source: PMC11864979, “First-in-class ultralong-target-residence-time p38α inhibitors as a mitosis-targeted therapy for colorectal cancer” (Nature Cancer, 2025)
